The values that follow come from US9174965B2, “Pyrimidinylpiperidinyloxypyridone analogues as GPR119 modulators” (BRISTOL-MYERS SQUIBB COMPANY, priority 2012, dated 2015).

Values after ≈ are worked out from the molar mass of the structure shown.

Series [1] relates to male C57BL/6J mice. In words: Mouse oral glucose tolerance test. It counts as in vivo. The conditions noted are these: for Glucose Lowering: at the minimally efficacious dose, plasma glucose AUC in oGTT; for Minimally efficacious Dose: oGTT in C57BL/6J mice. Here is the method:
Mouse Oral Glucose Tolerance Test
Twenty four (24) male C57BL/6J mice (8-10 weeks old, average weight 28 g) were randomized into 4 groups (1 mouse/cage) of 6 mice per group based on fed plasma glucose and body weight. Prior to initiating the study, mice were fasted overnight and the next morning they were weighed and placed in the experimental lab. After 30 min in the environment, the mice were bled via tail tip at −60 min and immediately given their first oral administration of vehicle (40% PEG400, 10% Cremophor EL, 50% water) or compound solutions (5 ml/kg). At time 0 the mice were bled and given 50% glucose (2 g/kg) to initiate the oral glucose tolerance test (oGTT). The mice were bled 30, 60 and 120 min after the glucose load. Blood samples were drawn into potassium EDTA, placed on ice during the study and subsequently centrifuged for 10 min at 3000 rpm at 4° C. Plasma samples were diluted 11-fold for glucose analysis in the COBAS MIRA® System (Roche Diagnostics). Area under the curve was calculated from the plasma glucose time course data using the trapezoid rule with fasting plasma glucose as the baseline (GraphPad Prism Software). The statistical significance of the changes in the glucose AUCs resulting from the different treatments was determined by one-way ANOVA followed by Dunnett's test using the vehicle group as the control (JMP software, release 5.1.2).
Find below in Table 7 data for compared compounds (See WO 2009/012275 A1).

Series [2] can be described thus: Aqueous solubility assay. The conditions noted are these: aqueous buffer, thermodynamic from solid; pH 6.5 phosphate buffer, room temperature, 18-24 h. It is filed as physicochemical. Here is the method:
Approximately 0.75 mg of accurately weighed test compound was added to 1 mL of a pH 6.5 phosphate buffer (50 mM Potassium Phosphate Buffer) to make solutions with a nominal targeted concentration of 1 mM. The vial was then rotated on an orbital shaker at room temperature for 18-24 h. After equilibration time had been met, the test solution was centrifuge filtered through a 0.45 um membrane (Millipore Ultrafree Centrifugal Filters, Durapore PVDF 0.45 um). The filtrate was then analyzed by an Agilent HP1100 HPLC/UV at multiple wavelengths using diode array detection (e.g. 210, 230, 254 and 280 nm) against a previously generated calibration curve to determine compound concentration.
Find below in Table 9 data for compared compounds (See WO 2011/127106 A1).

A short description of series [3]: Metabolic stability in liver microsomes test. Conditions: human, pH 7.4.
Procedure: (§1) Metabolic Stability in Liver Microsomes Test
(§2) The test compound was received as a 3.5 mM stock solution in 100 percent dimethyl sulfoxide (“DMSO”, Sigma Aldritch). The compound solution was diluted to create a 50 μM acetonitrile (“ACN”, Sigma Aldritch) solution containing 1.4% DMSO, which is then used as a 100-fold stock for incubation with microsomes. The test compound, β-nicotinamide adenine dinucleotide phosphate (“NADPH”, AppliChem Inc.) and liver microsome solutions are combined for incubation in three steps:
(§3) 1) 450 μl of liver microsome suspension, protein concentration of 1.1 mg/ml in 100 mM sodium (+)/phosphate (“NaPi”, pH 7.4, Sigma Aldritch) buffer, 5 mM magnesium chloride (“MgCl2, Sigma Aldritch) buffer, is pre-warmed at 37° C.;
(§4) 2) 5 μl of 50 μM test compound (98.6% ACN, 1.4% DMSO) is added to the same tube and pre-incubated at 37° C. for 5 minutes; and
(§5) 3) The reaction is initiated by the addition of 50 μl of pre-warmed 10 mM NADPH solution in 100 mM NaPi, pH 7.4.
(§6) Reaction components are mixed well and then 65 μl are immediately transferred into 130 μl quench/stop solution (zero-time point, T0). The reactions are incubated at 37° C. for 5, 10, 15, 30 and 45 minutes and at each time-point a 65 μl aliquot is transferred into 130 μl of quench solution. ACN containing Internal Standard (100 ng/ml), is used as the quench solution to terminate metabolic reactions. The quenched mixtures are centrifuged at 1500 rpm (˜500×g) in an Allegra X-12 centrifuge, SX4750 rotor (Beckman Coulter Inc., Fullerton, Calif.) for fifteen minutes to pellet denatured microsomes. A volume of 90 μl of supernatant extract, containing the mixture of parent compound and its metabolites, is then transferred to a separate 96-well plate for LC/MS-MS analysis to determine the percent of parent compound that is remaining in the mixture. Peak integration is performed on all samples using the Hepatic Clearance Calculator of QuickCalc by Gubbs, Inc. The percent remaining calculation is performed by comparing the LC-MS/MS peak areas from the samples at each time point to those from the T0 samples for each compound. T1/2 values are calculated from linear regression of the LN (% Remaining) over time, and the slope of that regression (Kel) is used to calculate T1/2, using the following equation: T1/2=−0.693/Kel.
Series [4] in a line: in vitro. The conditions noted are these: human, microsomes, pH 7.4.
Procedure: as §1, §2, §3, §4, §5, §6

For the compound `CCCc1cnc(N2CCC(Oc3cc(=O)n(-c4ccc(N5CCC(O)C5=O)c(C)n4)cc3Cl)CC2)nc1` (centres unmarked) [Example 2, 5-chloro-5′-(3-hydroxy-2-oxopyrrolidin-1-yl)-6′-methyl-4-((1-(5-propylpyrimidin-2-yl)piperidin-4-yl)oxy)-2H-[1,2′-bipyridin]-2-one], in series [1], the “Glucose Lowering” value is −19% and the “Minimally efficacious Dose” value came to 0.03 mg/kg. Also, the solubility in series [2] is 1 µg/mL (≈ 1.86 µM). Also, in series [3], the half-life at 0.5 µM is 2 h.

As for `Cc1nc(-n2ccc(OC3CCN(c4ncc(Cl)cn4)CC3)cc2=O)ccc1N1CCC(O)C1=O` (centres unmarked) [Example 6, 4-((1-(5-chloropyrimidin-2-yl)piperidin-4-yl)oxy)-5′-(3-hydroxy-2-oxopyrrolidin-1-yl)-6′-methyl-2H-[1,2′-bipyridin]-2-one], the solubility in series [2] is 7 µg/mL (≈ 14.1 µM). This compound gave a half-life at 0.5 µM in series [4] of 1.68 h.

With `Cc1nc(-n2cc(Cl)c(OC3CCN(c4ncc(Cl)cn4)CC3)cc2=O)ccc1N1CCC(O)C1=O` (centres unmarked) [Example 1, 5-chloro-4-((1-(5-chloropyrimidin-2-yl)piperidin-4-yl)oxy)-5′-(3-hydroxy-2-oxopyrrolidin-1-yl)-6′-methyl-2H-[1,2′-bipyridin]-2-one], in series [1], the “Glucose Lowering” value is on record as −36% and the “Minimally efficacious Dose” value came to 0.03 mg/kg. For the same compound, the solubility in series [2] amounted to 4 µg/mL (≈ 7.53 µM). In series [4], this compound came in with a half-life at 0.5 µM of 1.57 h.

In the case of `CCCc1cnc(N2CCC(Oc3ccn(-c4ccc(N5CCC(O)C5=O)c(C)n4)c(=O)c3)CC2)nc1` (centres unmarked) [Example 5, 5′-(3-hydroxy-2-oxopyrrolidin-1-yl)-6′-methyl-4-((1-(5-propylpyrimidin-2-yl)piperidin-4-yl)oxy)-2H-[1,2′-bipyridin]-2-one], in series [1], the “Glucose Lowering” value is given as −21% and the “Minimally efficacious Dose” value stood at 0.1 mg/kg. The compound further came in with a solubility in series [2] of 3 µg/mL (≈ 5.95 µM). For the same compound, in series [4], the half-life at 0.5 µM worked out at 1.27 h.
